Test results taken from paper PMC8982324 (Journal of Extracellular Vesicles, 2022).
No end group written: not given here.

How the values were obtained:
HEK293T‐eGFP cells = format: cell-based
full length NMT1 enzyme = molecular target: T1, full length NMT1 enzyme (Homo sapiens, UniProt P30419); assay: NMT1 activity assay; details: synthesized octapeptide; average of three experiments
T1 sequence (P30419 1-496): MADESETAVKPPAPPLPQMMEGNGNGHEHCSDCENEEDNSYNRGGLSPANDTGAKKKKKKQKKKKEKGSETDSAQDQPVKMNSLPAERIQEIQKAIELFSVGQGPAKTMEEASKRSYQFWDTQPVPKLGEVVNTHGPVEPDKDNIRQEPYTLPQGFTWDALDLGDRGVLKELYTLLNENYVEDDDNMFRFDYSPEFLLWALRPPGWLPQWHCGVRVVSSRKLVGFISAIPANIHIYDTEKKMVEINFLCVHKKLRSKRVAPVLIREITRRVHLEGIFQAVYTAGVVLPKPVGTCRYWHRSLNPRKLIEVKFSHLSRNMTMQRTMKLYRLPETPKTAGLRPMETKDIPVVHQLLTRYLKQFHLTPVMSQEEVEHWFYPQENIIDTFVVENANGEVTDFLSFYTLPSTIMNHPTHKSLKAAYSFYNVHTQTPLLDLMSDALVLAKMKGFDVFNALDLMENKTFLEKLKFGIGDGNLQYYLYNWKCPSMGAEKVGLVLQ

Compound	effect on Cas9 and VSV‐G protein levels in recipient cells (HEK293T‐eGFP cells)	substrate of NMT1 enzyme (full length NMT1 enzyme)
CCN(CC)CCCC(C)Nc1ccnc2cc(Cl)ccc12 (centres unmarked) [chloroquine]	greatly increased	–
ASNKSKPK [SRC(G2A)]	–	not a substrate of NMT1
